Measurements from ChEMBL document CHEMBL4024717, “Anthranilamide-based 2-phenylcyclopropane-1-carboxamides, 1,1'-biphenyl-4-carboxamides and 1,1'-biphenyl-2-carboxamides: Synthesis biological evaluation and mechanism of action” (Eur J Med Chem, 2017).
The source made the active and inactive calls. The calls are words filed in the database; no cut-off is given here.

Columns and labels:
[1] = tested on: K562; assay: Growth inhibition of human K562 cells at 10 uM after 24 hrs by MTT assay relative to control; type: functional; details: K562, 24 h, read-out: GI
[2] = tested on: K562; assay: Induction of reactive oxygen species generation in human K562 cells at 0.75 to 2.5 uM after 48 hrs by H2DCFDA staining based fluorescence microscopic analysis; type: functional, cell-based
[3] = tested on: K562; assay: Induction of morphological changes in human K562 cells assessed as cellular fragmentation at 0.75 to 2.5 uM after 48 hrs by light microscopic method; type: functional, cell-based
[4] = Selectivity index, ratio of IC50 for human 16HBE cells to IC50 for human K562 cells; type: functional
[5] = tested on: K562; assay: Induction of morphological changes in human K562 cells assessed as reduction in cell number at 0.75 to 2.5 uM after 24 hrs by light microscopic method; type: functional, cell-based
[6] = target: Serine-protein kinase ATM (Homo sapiens) (UniProt Q13315); assay: Activation of ATM phosphorylation in human K562 cells assessed as ratio of phosphorylated ATM to beta-tubulin level at 750 nM after 24 hrs by Western blot analysis (reference value: 0.2); type: cell-based
[7] = tested on: MDA-MB-231; assay: Cytotoxicity against human MDA-MB-231 cells after 24 hrs by MTT assay; type: functional, cell-based; details: MDA-MB-231, 24 h
[8] = tested on: K562; assay: Cell cycle arrest in human K562 cells assessed as accumulation at sub G0/G1 phase at 750 nM after 48 hrs by propidium iodide staining based flow cytometry (reference value: 1.1%); type: functional
[9] = target: Serine-protein kinase ATM (Homo sapiens) (UniProt Q13315); assay: Activation of ATM phosphorylation in human K562 cells assessed as ratio of phosphorylated ATM to beta-tubulin level at 750 nM after 48 hrs by Western blot analysis (reference value: 0.2); type: cell-based
[10] = tested on: K562; assay: Cytotoxicity against human K562 cells after 24 hrs by MTT assay; type: functional, cell-based; details: K562, 24 h
[11] = target: T1, c-Jun N-terminal kinase, JNK (Homo sapiens) (UniProt P45983+P53779+P45984); assay: Induction of JNK phosphorylation in human K562 cells assessed as ratio of phosphorylated JNK to beta-tubulin at 750 nM after 24 hrs by Western blot analysis (reference value: 1); type: cell-based
[12] = target: T1, c-Jun N-terminal kinase, JNK (Homo sapiens); assay: Induction of JNK phosphorylation in human K562 cells assessed as ratio of phosphorylated JNK to beta-tubulin at 2.5 uM after 48 hrs by Western blot analysis (reference value: 1); type: cell-based
[13] = target: Serine-protein kinase ATM (Homo sapiens) (UniProt Q13315); assay: Activation of ATM phosphorylation in human K562 cells assessed as ratio of phosphorylated H2AX at S139 to beta-tubulin level at 2.5 uM after 24 hrs by Western blot analysis (reference value: 1); type: cell-based
[14] = target: T1, c-Jun N-terminal kinase, JNK (Homo sapiens); assay: Induction of JNK phosphorylation in human K562 cells assessed as ratio of phosphorylated JNK to beta-tubulin at 750 nM after 48 hrs by Western blot analysis (reference value: 1); type: cell-based
[15] = tested on: K562; assay: Induction of apoptosis in human K562 cells assessed as ratio of procaspase-3 to beta actin level at 750 nM after 48 hrs by Western blot analysis (reference value: 0.9); type: functional
[16] = tested on: K562; assay: Cell cycle arrest in human K562 cells assessed as accumulation at G2/M phase at 750 nM after 24 hrs by propidium iodide staining based flow cytometry (reference value: 13.3%); type: functional
[17] = tested on: K562; assay: Cell cycle arrest in human K562 cells assessed as accumulation at G0/G1 phase at 750 nM after 24 hrs by propidium iodide staining based flow cytometry (reference value: 68.8%); type: functional
[18] = tested on: K562; assay: Induction of apoptosis in human K562 cells assessed as chromatin condensation at 0.75 to 2.5 uM after 24 to 48 hrs by Hoechst 33342/DAPI staining based fluorescence microscopic analysis; type: functional, cell-based
[19] = tested on: K562; assay: Cell cycle arrest in human K562 cells assessed as accumulation at G2/M phase at 2.5 uM after 48 hrs by propidium iodide staining based flow cytometry (reference value: 17.7%); type: functional
[20] = tested on: K562; assay: Cell cycle arrest in human K562 cells assessed as accumulation at sub G0/G1 phase at 2.5 uM after 48 hrs by propidium iodide staining based flow cytometry (reference value: 1.1%); type: functional
[21] = tested on: K562; assay: Induction of apoptosis in human K562 cells assessed as cell shrinkage at 0.75 to 2.5 uM after 24 to 48 hrs by Hoechst 33342/DAPI staining based fluorescence microscopic analysis; type: functional
[22] = tested on: K562; assay: Cell cycle arrest in human K562 cells assessed as accumulation at G0/G1 phase at 750 nM after 48 hrs by propidium iodide staining based flow cytometry (reference value: 67.4%); type: functional
[23] = tested on: K562; assay: Induction of apoptosis in human K562 cells assessed as ratio of procaspase-3 to beta actin level at 750 nM after 24 hrs by Western blot analysis (reference value: 1); type: functional
[24] = tested on: K562; assay: Cell cycle arrest in human K562 cells assessed as accumulation at G2/M phase at 750 nM after 48 hrs by propidium iodide staining based flow cytometry (reference value: 17.7%); type: functional
[25] = tested on: K562; assay: Induction of morphological changes in human K562 cells assessed as reduction in cell volume at 0.75 to 2.5 uM after 24 hrs by light microscopic method; type: functional, cell-based
[26] = tested on: HT-29; assay: Cytotoxicity against human HT-29 cells after 24 hrs by MTT assay; type: functional, cell-based; details: HT-29, 24 h
[27] = Selectivity index, ratio of IC50 for human 16HBE cells to IC50 for human MDA-MB-231 cells; type: functional
[28] = target: Serine-protein kinase ATM (Homo sapiens) (UniProt Q13315); assay: Activation of ATM phosphorylation in human K562 cells assessed as ratio of phosphorylated H2AX at S139 to beta-tubulin level at 750 nM after 24 hrs by Western blot analysis (reference value: 1); type: cell-based
[29] = tested on: K562; assay: Induction of reactive oxygen species generation in human K562 cells at 0.75 to 2.5 uM after 5 to 24 hrs by H2DCFDA staining based fluorescence microscopic analysis; type: functional, cell-based
[30] = tested on: K562; assay: Cell cycle arrest in human K562 cells assessed as accumulation at sub G0/G1 phase at 2.5 uM after 24 hrs by propidium iodide staining based flow cytometry (reference value: 3.1%); type: functional
[31] = tested on: K562; assay: Induction of morphological changes in human K562 cells assessed as appearance of shrunken cytoplasm at 0.75 to 2.5 uM after 24 hrs by light microscopic method; type: functional, cell-based
[32] = tested on: K562; assay: Induction of apoptosis in human K562 cells assessed as ratio of procaspase-3 to beta actin level at 2.5 uM after 48 hrs by Western blot analysis (reference value: 0.9); type: functional
[33] = tested on: K562; assay: Cytotoxicity against human K562 cells after 48 hrs by MTT assay; type: functional, cell-based; details: K562, 48 h
[34] = Selectivity index, ratio of IC50 for human 16HBE cells to IC50 for human HT-29 cells; type: functional
[35] = target: T1, c-Jun N-terminal kinase, JNK (Homo sapiens); assay: Induction of JNK phosphorylation in human K562 cells assessed as ratio of phosphorylated JNK to beta-tubulin at 2.5 uM after 24 hrs by Western blot analysis (reference value: 1); type: cell-based
[36] = tested on: K562; assay: Cell cycle arrest in human K562 cells assessed as accumulation at G2/M phase at 2.5 uM after 24 hrs by propidium iodide staining based flow cytometry (reference value: 13.3%); type: functional
[37] = target: Serine-protein kinase ATM (Homo sapiens) (UniProt Q13315); assay: Activation of ATM phosphorylation in human K562 cells assessed as ratio of phosphorylated ATM to beta-tubulin level at 2.5 uM after 24 hrs by Western blot analysis (reference value: 0.2); type: cell-based
[38] = tested on: K562; assay: Cell cycle arrest in human K562 cells assessed as accumulation at G0/G1 phase at 2.5 uM after 48 hrs by propidium iodide staining based flow cytometry (reference value: 67.4%); type: functional
[39] = tested on: 16HBE14o-; assay: Cytotoxicity against human 16HBE cells after 24 hrs by MTT assay; type: cell-based
[40] = target: Serine-protein kinase ATM (Homo sapiens) (UniProt Q13315); assay: Activation of ATM phosphorylation in human K562 cells assessed as ratio of phosphorylated ATM to beta-tubulin level at 2.5 uM after 48 hrs by Western blot analysis (reference value: 0.2); type: cell-based
[41] = tested on: K562; assay: Cell cycle arrest in human K562 cells assessed as accumulation at sub G0/G1 phase at 750 nM after 24 hrs by propidium iodide staining based flow cytometry (reference value: 3.1%); type: functional
[42] = target: Serine-protein kinase ATM (Homo sapiens) (UniProt Q13315); assay: Activation of ATM phosphorylation in human K562 cells assessed as ratio of phosphorylated H2AX at S139 to beta-tubulin level at 750 nM after 48 hrs by Western blot analysis (reference value: 0.8); type: cell-based
[43] = tested on: K562; assay: Induction of apoptosis in human K562 cells assessed as DNA fragmentation at 0.75 to 2.5 uM after 24 to 48 hrs by Hoechst 33342/DAPI staining based fluorescence microscopic analysis; type: functional, cell-based
[44] = target: Serine-protein kinase ATM (Homo sapiens) (UniProt Q13315); assay: Activation of ATM phosphorylation in human K562 cells assessed as ratio of phosphorylated H2AX at S139 to beta-tubulin level at 2.5 uM after 48 hrs by Western blot analysis (reference value: 0.8); type: cell-based
[45] = tested on: K562; assay: Induction of apoptosis in human K562 cells assessed as ratio of procaspase-3 to beta actin level at 2.5 uM after 24 hrs by Western blot analysis (reference value: 1); type: functional
[46] = tested on: K562; assay: Cell cycle arrest in human K562 cells assessed as accumulation at G0/G1 phase at 2.5 uM after 24 hrs by propidium iodide staining based flow cytometry (reference value: 68.8%); type: functional

Chain of Serine-protein kinase ATM (Homo sapiens) (Q13315 whole entry, the tested form may be a part): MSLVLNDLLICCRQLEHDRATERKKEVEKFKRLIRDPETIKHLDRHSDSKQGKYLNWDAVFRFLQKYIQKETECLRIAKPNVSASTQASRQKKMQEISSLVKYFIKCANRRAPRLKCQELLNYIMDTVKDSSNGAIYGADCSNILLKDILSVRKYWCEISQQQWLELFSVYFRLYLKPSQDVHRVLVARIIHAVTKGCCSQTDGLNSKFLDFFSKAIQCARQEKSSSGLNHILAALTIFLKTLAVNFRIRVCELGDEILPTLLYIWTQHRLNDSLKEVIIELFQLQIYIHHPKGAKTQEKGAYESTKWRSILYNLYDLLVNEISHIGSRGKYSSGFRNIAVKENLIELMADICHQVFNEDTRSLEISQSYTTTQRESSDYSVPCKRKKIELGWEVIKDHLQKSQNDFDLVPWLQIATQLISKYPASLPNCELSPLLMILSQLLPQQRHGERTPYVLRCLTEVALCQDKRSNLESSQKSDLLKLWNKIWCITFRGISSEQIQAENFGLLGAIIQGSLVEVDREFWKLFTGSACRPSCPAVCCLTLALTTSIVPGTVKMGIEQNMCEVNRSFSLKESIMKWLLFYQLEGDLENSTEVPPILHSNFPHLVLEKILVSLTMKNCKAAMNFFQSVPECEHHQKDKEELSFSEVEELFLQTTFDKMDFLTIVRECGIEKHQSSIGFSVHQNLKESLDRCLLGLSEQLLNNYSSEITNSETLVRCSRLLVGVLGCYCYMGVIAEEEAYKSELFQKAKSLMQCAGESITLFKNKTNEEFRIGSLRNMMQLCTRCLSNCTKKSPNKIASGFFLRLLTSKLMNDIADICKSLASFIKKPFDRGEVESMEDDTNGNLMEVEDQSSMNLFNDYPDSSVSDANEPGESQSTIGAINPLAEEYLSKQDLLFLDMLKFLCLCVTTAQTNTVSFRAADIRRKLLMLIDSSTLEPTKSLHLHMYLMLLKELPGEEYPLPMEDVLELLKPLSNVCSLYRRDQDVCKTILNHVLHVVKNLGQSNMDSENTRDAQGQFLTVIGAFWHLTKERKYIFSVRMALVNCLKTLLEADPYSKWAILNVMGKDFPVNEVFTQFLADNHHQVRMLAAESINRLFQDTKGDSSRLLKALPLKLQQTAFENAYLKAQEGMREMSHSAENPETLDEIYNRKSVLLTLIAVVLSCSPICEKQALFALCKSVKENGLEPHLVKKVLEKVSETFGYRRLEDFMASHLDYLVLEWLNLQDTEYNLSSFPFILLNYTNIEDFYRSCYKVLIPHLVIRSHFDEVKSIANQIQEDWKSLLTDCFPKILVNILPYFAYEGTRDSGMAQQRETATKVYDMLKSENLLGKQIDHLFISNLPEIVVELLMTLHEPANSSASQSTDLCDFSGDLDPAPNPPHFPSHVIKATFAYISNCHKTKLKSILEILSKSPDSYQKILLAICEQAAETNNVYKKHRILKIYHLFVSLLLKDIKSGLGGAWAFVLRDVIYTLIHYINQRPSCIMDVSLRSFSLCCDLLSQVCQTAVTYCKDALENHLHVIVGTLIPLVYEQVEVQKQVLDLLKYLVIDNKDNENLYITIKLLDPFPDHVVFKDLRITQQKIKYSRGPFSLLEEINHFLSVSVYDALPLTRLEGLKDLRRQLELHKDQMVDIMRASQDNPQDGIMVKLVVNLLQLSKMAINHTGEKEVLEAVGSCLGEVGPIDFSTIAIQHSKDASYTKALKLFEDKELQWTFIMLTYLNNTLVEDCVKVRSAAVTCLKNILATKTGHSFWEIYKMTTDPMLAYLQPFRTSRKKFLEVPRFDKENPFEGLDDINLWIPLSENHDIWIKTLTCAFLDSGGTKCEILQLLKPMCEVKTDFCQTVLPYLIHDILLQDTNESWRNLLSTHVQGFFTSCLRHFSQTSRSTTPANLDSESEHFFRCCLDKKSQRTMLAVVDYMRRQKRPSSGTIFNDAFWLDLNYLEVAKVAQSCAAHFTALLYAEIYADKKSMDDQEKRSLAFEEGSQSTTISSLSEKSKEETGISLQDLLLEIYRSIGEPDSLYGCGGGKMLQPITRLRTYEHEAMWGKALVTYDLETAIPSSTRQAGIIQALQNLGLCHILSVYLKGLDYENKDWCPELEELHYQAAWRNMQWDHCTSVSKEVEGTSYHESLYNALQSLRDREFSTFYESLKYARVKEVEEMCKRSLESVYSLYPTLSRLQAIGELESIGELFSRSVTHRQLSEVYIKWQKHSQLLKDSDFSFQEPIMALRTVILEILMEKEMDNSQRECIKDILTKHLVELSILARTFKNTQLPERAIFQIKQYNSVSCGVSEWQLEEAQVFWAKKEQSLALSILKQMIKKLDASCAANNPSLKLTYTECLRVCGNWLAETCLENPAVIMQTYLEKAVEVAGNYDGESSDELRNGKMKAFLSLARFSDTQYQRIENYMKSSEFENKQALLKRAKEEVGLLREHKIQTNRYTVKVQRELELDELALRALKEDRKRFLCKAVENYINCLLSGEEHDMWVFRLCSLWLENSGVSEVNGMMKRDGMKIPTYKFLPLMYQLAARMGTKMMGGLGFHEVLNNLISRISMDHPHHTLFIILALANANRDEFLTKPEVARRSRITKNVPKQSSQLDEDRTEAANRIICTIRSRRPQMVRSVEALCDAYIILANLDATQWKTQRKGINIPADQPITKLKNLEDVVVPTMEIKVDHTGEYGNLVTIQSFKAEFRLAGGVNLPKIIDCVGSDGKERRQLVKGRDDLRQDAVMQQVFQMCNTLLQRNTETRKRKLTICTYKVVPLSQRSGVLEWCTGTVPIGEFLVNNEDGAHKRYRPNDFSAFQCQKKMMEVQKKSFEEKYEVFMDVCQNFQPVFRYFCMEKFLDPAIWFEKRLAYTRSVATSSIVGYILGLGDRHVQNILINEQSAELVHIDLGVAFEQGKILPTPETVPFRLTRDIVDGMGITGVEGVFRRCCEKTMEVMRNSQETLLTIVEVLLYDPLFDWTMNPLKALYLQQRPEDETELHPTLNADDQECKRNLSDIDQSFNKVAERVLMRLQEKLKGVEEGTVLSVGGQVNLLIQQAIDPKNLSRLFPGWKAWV

NC(=O)c1ccccc1NC(=O)[C@@H]1C[C@H]1c1ccccc1
inhibition of growth at 10 µM [1]: < 10%

NC(=O)c1ccccc1NC(=O)c1ccc(-c2ccccc2)cc1
inhibition of growth at 10 µM [1]: 21.6%

Cc1ccc(NC(=O)[C@@H]2C[C@H]2c2ccccc2)c(C(N)=O)c1
inhibition of growth at 10 µM [1]: 15%

NC(=O)c1cc(Cl)ccc1NC(=O)[C@@H]1C[C@H]1c1ccccc1
inhibition of growth at 10 µM [1]: 24%

COc1cc2c(c(OC)c1OC)-c1ccc(OC)c(=O)cc1[C@@H](NC(C)=O)CC2 [COLCHICINE]
inhibition of growth at 10 µM [1]: 63.6%

Cc1ccc(NC(=O)c2ccccc2-c2ccccc2)c(C(N)=O)c1
inhibition of growth at 10 µM [1]: 48.9%

NC(=O)c1cc(I)ccc1NC(=O)c1ccccc1-c1ccccc1
Activity [2]: Active | Activity [3]: Active | Ratio IC50 [4]: 60 | Activity [5]: Active | Ratio [6]: 1 | IC50 [7]: 10 µM | Activity [8]: 4% | Ratio [9]: 0.5 | IC50 [10]: 0.5 µM | Ratio [11]: 0.8 | Ratio [12]: 1.4 | Ratio [13]: 2.1 | Ratio [14]: 1.2 | Ratio [15]: 0.5 | Activity [16]: 37.1% | Activity [17]: 54.9% | Activity [18]: Active | Activity [19]: 13.4% | Activity [20]: 26.2% | Activity [21]: Active | Activity [22]: 48.6% | Ratio [23]: 0.8 | Activity [24]: 30.5% | Activity [25]: Active | IC50 [26]: 10 µM | Ratio IC50 [27]: 3 | Ratio [28]: 1.5 | Activity [29]: inactive | Activity [30]: 2.2% | Activity [31]: Active | Ratio [32]: 0.5 | IC50 [33]: 0.5 µM | Ratio IC50 [34]: 3 | Ratio [35]: 1.2 | Activity [36]: 74.6% | Ratio [37]: 2.5 | Activity [38]: 50.5% | IC50 [39]: 30 µM | Ratio [40]: 0.9 | Activity [41]: 2.7% | Ratio [42]: 2.2 | inhibition of growth at 10 µM [1]: 85% | Activity [43]: Active | Ratio [44]: 1.6 | Ratio [45]: 0.8 | Activity [46]: 14.9%

NC(=O)c1cc(I)ccc1NC(=O)[C@@H]1C[C@H]1c1ccccc1
IC50 [33]: 10 µM | inhibition of growth at 10 µM [1]: 25%

COc1ccc(NC(=O)[C@@H]2C[C@H]2c2ccccc2)c(C(N)=O)c1
inhibition of growth at 10 µM [1]: 26.7%

COc1ccc(NC(=O)c2ccccc2-c2ccccc2)c(C(N)=O)c1
inhibition of growth at 10 µM [1]: 37%
